Test results as given in patent US9504702B2, “Methods of inhibition of protein fucosylation in vivo using fucose analogs” (Seattle Genetics, Inc., priority 2010, dated 2016).

Tests used:
[1] = tested on: antibody core fucosylation (antibodies that did not bind to KLH, recovered from protein A column); assay: In vivo antibody fucosylation after ip dosing (Example 1, Study 1), AOL lectin dot blot; conditions: 150 mg/kg ip daily for 7 days; for fucosylation levels of the antibodies reduced, as compared to the untreated controls: non-KLH antibodies from protein A column, dot blot, on average
Description: Female BALB/c mice were immunized with Keyhole Limpet Hemocyanin (KLH) 30-60 days prior to starting this study. For the first study, mice were dosed ip with 150 mg/kg of alkynyl fucose (SGD-1887), alkynyl fucose peracetate (SGD-1890), 2-fluorofucose (SGD-2083), or 2-fluorofucose triacetate (SGD-2084) daily for 7 days or were untreated. On day 2, mice were also boosted with KLH. On the day after the last ip dose, mice were terminally bled and serum obtained. For the second study, mice were given 100 mM of 2-fluorofucose (SGD-2083) in their drinking water or given untreated water for 7 days, boosted with KLH, and continued with 100 mM 2-fluorofucose containing drinking water or untreated water for 7 more days before being terminally bled. Serum was then obtained. No mice died in either study. For both studies, serum was passed over a commercial anti-KLH affinity column to obtain KLH-specific polyclonal antibodies. The flow through from the anti-KLH affinity column was passed over a commercial protein A column to obtain the remaining antibodies.
Dot blots: 0.5 μg each of antibodies from untreated and treated animals, as well as standards of antibody cAC10 having known amounts of core fucosylation (0 to 100% fucose), were blotted onto a nitrocellulose membrane. The proteins levels were visualized by Ponceau staining. The blot was probed with biotinylated Aspergillus oryzae L-fucose-specific lectin (AOL) (which binds to fucosylated antibodies) and developed with streptavidin HRP and ECL. Gel loading (visible) and fucose signals (bioluminescence) were measured with an Alpha Innotech camera and quantitated with the machine software.

[2] = tested on: P-selectin ligand on Ramos cells; assay: Cell surface P-selectin ligand by FACS, P-selectin fusion protein, Ramos; assay type: cell-based, human
Description: 100 μM of each inhibitor was used under standard culture conditions for approximately 1-2 weeks with regular changes of culture medium including fresh inhibitor. After the incubation period, the cells were analyzed by FACS using four different detection reagents: biotinylated-Lens culimaris agglutinin-A (LCA), anti-Lewis' antibody (anti-SSEA1), an anti-Lewis^y antibody (cBR96), and a Recombinant Human P-Selectin/CD62P/Fc Fusion protein. The procedure involved washing of the cells with FACS buffer (PBS+10% bovine serum albumin+0.02% sodium azide) 3 times followed by incubation with the primary detection reagent for 1 hr at 4° C., followed by 3 washes with FACS buffer and then incubation with the secondary detection reagent for 1 hr at 4° C. The cells were finally washed with FACS buffer 3 times and resuspended in FACS buffer and examined using a BD FACScan instrument. […] The P-selectin fusion protein detects P-selectin ligand present on the surface of cells, an interaction which involves the sialyl Lewis' epitope present of the P-selectin ligand.

[3] = tested on: LS174T colon adenocarcinoma cells; assay: Xenograft of LS174T cells without prior treatment (Example 7, Study 3); assay type: in vivo, female nude mice
Description: In a third study, tumor cells were implanted without prior treatment with a fucose analog. LS174T colon adenocarcinoma cells (5×10^5 cells in 25% Matrigel) were implanted subcutaneously into female nude mice. Mice were supplied with 50 mM 2-fluorofucose (SGD-2083) in their drinking water from 7 days before implant until 21 days after implant, or were supplied with regular drinking water.

Ramos Burkitt lymphoma = assay: Xenograft of pre-treated Ramos cells (Example 7, Study 2); assay type: in vivo, female SCID mice; conditions: 20 mM in drinking water
Description: (§1) To further evaluate the activity of these fucose analogs, further studies were performed in vivo using tumor cells that had been pre-treated by culturing in the presence of a fucose analog, or using untreated tumor cells. Tumor cells were implanted into 10 mice per group as follows. For the LS174T, PC-3, and Caki-1 cell lines, 5×10^5 cells in 25% Matrigel were implanted subcutaneously into female nude mice. For HL-60 and Ramos cell lines, 5×10^6 cells were implanted subcutaneously into female SCID mice. For mice implanted with untreated tumor cells, mice were provided regular drinking water. For mice implanted with tumor cells pre-treated with 2-fluorofucose (SGD-2083), the mice were provided drinking water supplemented with 20 mM 2-fluorofucose (SGD-2083). For mice implanted with tumor cells pre-treated with alkylnyl fucose (SGD-1887), the mice were provided with regular drinking water.
(§2) After 3 weeks of receiving 2-fluorofucose-containing drinking water, mice were returned to regular drinking water, except for mice with Caki-1 tumors. The latter mice were returned to regular drinking water for one week. After the week of receiving regular water, mice were randomized to two groups of 5 each to receive drinking water supplemented with 20 mM 2-fluorofucose or regular drinking water. Mice were sacrificed when tumors reached about 1000 mm^3.

[4] = tested on: LS174T colon adenocarcinoma; assay: Xenograft of pre-treated LS174T cells (Example 7, Study 2); assay type: in vivo, female nude mice; conditions: 20 mM in drinking water
Description: as §1, §2

[5] = tested on: E-selectin binding to neutrophils; assay: E-selectin binding to neutrophils following oral dosing, flow cytometry; assay type: in vivo, Female Balb/c mice
Description: The effects of a fucose analog on leukocytosis and E-selectin binding were eamined in mice. Female Balb/c mice were given oral 2-fluorofucose (SGD-2083) in the drinking water or left untreated. Mice were bled prior to dosing and then weekly for three weeks to assess circulating cell numbers and their ability to bind E-selectin. In one study, 2-fluorofucose was formulated at 1 mM, 10 mM or 100 mM in the drinking water (n=3 per group). At day 14, mice were treated with TiterMAX® Classic adjuvant (Sigma) to stimulate polyclonal, antigen non-specific antibody production by B cells, and remained on the 2-fluorofucose-containing water through day 21. In a second study, mice were given oral 2-fluorofucose formulated at 10 mM and 100 mM in the drinking water for three weeks without any other treatments (n=6). On day 21, a pool of lymph nodes (axillary, brachial, superficial inguinal, and mesenteric) from each of three animals was assessed in addition to blood. Lymph nodes were homogenized into single cell suspensions, and total cell numbers were determined by counting on a hemcytometer, using Trypan Blue for dead cell exclusion. To determine total white cell numbers/μL blood, samples of blood from individual animals were counted on a hemacytometer, using Turk's solution (0.01% gentian violet in 3% acetic acid) to exclude red blood cells (RBCs). RBCs were eliminated from the remainder of the blood by osmotic lysis for flow cytometric analysis. Cells were incubated with anti-Gr-1-FITC antibodies (BD Biosciences) to identify neutrophils, and a recombinant E-selectin-human Fc fusion protein (R&D Systems). Cells were washed and then incubated with a PE-labeled goat anti-human IgG-Fc secondary antibody (Jackson Immunoresearch) to detect bound E-selectin. Samples were collected on a FACSCalibur flow cytometer and analyzed using CellQuest software. The percentage of Gr-1+ cells was determined and absolute number of neutrophils was calculated using the total white cell number from the hemacytometer count. […] The geometric mean of the E-selectin fluorescent signal was determined from the histogram.

PC-3 = assay: Xenograft of pre-treated PC-3 cells (Example 7, Study 2); assay type: in vivo, female nude mice; conditions: 20 mM in drinking water
Description: as §1, §2

Row | Compound | mortality [1] | fucosylation levels of the antibodies reduced, as compared to the untreated controls [1] | signal for P-selectin ligand (increase upon treatment) [2] | tumor growth ([3]; 50 mM in drinking water) | average tumor size ([3]; 50 mM in drinking water from 7 days before until 21 days after implant, regular water 734 mm^3) [mm^3] | tumor growth (Ramos Burkitt lymphoma) | tumor growth [4] | effect on E-selectin binding to neutrophils ([5]; 1 mM) | effect on E-selectin binding to neutrophils ([5]; 10 mM and 100 mM) | E-selectin binding to neutrophils ([5]; oral in drinking water, dose-dependent) | tumor growth (PC-3)
1 | C#CC(OC(C)=O)[C@@H](OC(C)=O)[C@@H](OC(C)=O)[C@@H](C=O)OC(C)=O (stereo partly drawn) [SGD-1890, 5-ethynylarabinose tetraacetate] | No mice died | about one third | – | – | – | – | – | – | – | – | –
2 | C[C@H](O)[C@@H](O)[C@@H](O)[C@H](F)C=O [SGD-2083, 2-fluoro-2-deoxy fucose] | – | about one third | not observed | substantial inhibition of tumor growth | 110 | No change in tumor growth | tumor growth inhibition in vivo was seen | little effect | increasing effects | decreased | tumor growth inhibition in vivo was seen
